Experimental data taken from US10125134B2 (Mirati Therapeutics, Inc., priority 2016, dated 2018).
Like-named read-outs stand apart in the source and are kept apart here.

What was measured:
[1] = test system: NCI-H358 cells (express KRas G12C), Phospho-ERK; assay: Cellular inhibition of KRas G12C: Phospho-ERK in NCI-H358 cells; format: cell-based; conditions: pERK(Thr202/Tyr204) normalized with GAPDH, NCI-H358 cells, 3 hours, read-out: IC50
Procedure, shortened: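 IC50 derived by 4-parameter fit of GAPDH-normalized pERK(Thr202/Tyr204) signal, as percent of DMSO control. Signal came from in-cell immunodetection with infrared secondaries after 3 h compound exposure of KRas G12C NCI-H358 cells at 0.5% DMSO.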

KRas G12C = KRas G12C (Homo sapiens, UniProt P01116, C118S/C51S/C80L/G12C); assay: KRas G12C Modification Assay (LCMS detection of covalent adduct); format: binding; conditions: normalized percent of control, tested at 5 μM concentration for 3 hours
Procedure, shortened: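 Covalent modification was read by reverse-phase LC/MS of intact protein after compound exposure, each reaction stopped at its time point with 25 mM acetic acid. Unmodified-protein signal, taken as percent of total, was normalised to untreated protein and reported as POC.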

SMILES | POC (KRas G12C) | POC (KRas G12C; 5 µM) | IC50 ([1]; Homo sapiens, NCI-H358, 3 h) | IC50 [1] | IC50 ([1]; Homo sapiens)
C=CC(=O)N1CCN(c2nc(OC[C@@H]3CN(C)CCO3)nc3c2CCN(c2cccc4ccccc24)C3)CC1CC#N (stereo partly drawn) [Example 271, 2-(1-acryloyl-4-(2-(((S)-4-methylmorpholin-2-yl)methoxy)-7-(naphthalen-1-yl)-5,6,7,8-tetrahydropyrido[3,4-d]pyrimidin-4-yl)piperazin-2-yl)acetonitrile] | C (“C”>50% POC) |  | 0.1 to 1000 nM |  | 
C=CC(=O)N1CCN(c2nc(OC[C@@H]3CCCN3C)nc3c2CCN(c2ccc(F)cc2C(F)(F)F)C3)CC1CC#N (stereo partly drawn) [Example 276, 2-(1-acryloyl-4-(7-(4-fluoro-2-(trifluoromethyl)phenyl)-2-(((S)-1-methylpyrrolidin-2-yl)methoxy)-5,6,7,8-tetrahydropyrido[3,4-d]pyrimidin-4-yl)piperazin-2-yl)acetonitrile] | C (“C”>50% POC) |  | 0.1 to 1000 nM |  | 
C=CC(=O)N1CCN(c2nc(OCCN(C)C)nc3c2CCN(c2ccccc2C(F)(F)F)C3)CC1CC#N (stereo not shown) [Example 279, 2-(1-acryloyl-4-(2-(2-(dimethylamino)ethoxy)-7-(2-(trifluoromethyl)phenyl)-5,6,7,8-tetrahydropyrido[3,4-d]pyrimidin-4-yl)piperazin-2-yl)acetonitrile] | C (“C”>50% POC) |  | 0.1 to 1000 nM |  | 
C=CC(=O)N1CCN(c2nc(OCCCN3C[C@H]4C[C@@H]3CO4)nc3c2CCN(c2ccccc2C(F)(F)F)C3)CC1CC#N (stereo partly drawn) [Example 280, 2-(4-(2-(3-((1R,4R)-2-oxa-5-azabicyclo[2.2.1]heptan-5-yl)propoxy)-7-(2-(trifluoromethyl)phenyl)-5,6,7,8-tetrahydropyrido[3,4-d]pyrimidin-4-yl)-1-acryloylpiperazin-2-yl)acetonitrile] | C (“C”>50% POC) |  |  |  | 0.1 to 1000 nM
C=CC(=O)N1CCN(c2nc(OC[C@@H]3CCN(C)C3)nc3c2CCN(c2ccccc2C(F)(F)F)C3)CC1CC#N (stereo partly drawn) [Example 281, 2-(1-acryloyl-4-(2-(((R)-1-methylpyrrolidin-3-yl)methoxy)-7-(2-(trifluoromethyl)phenyl)-5,6,7,8-tetrahydropyrido[3,4-d]pyrimidin-4-yl)piperazin-2-yl)acetonitrile] | C (“C”>50% POC) |  | 0.1 to 1000 nM |  | 
C=CC(=O)N1CCN(c2nc(OCCN(CC)CC)nc3c2CCN(c2ccccc2C(F)(F)F)C3)CC1CC#N (stereo not shown) [Example 284, 2-(1-acryloyl-4-(2-(2-(diethylamino)ethoxy)-7-(2-(trifluoromethyl)phenyl)-5,6,7,8-tetrahydropyrido[3,4-d]pyrimidin-4-yl)piperazin-2-yl)acetonitrile] | C (“C”>50% POC) |  | 0.1 to 1000 nM |  | 
C=CC(=O)N1CCN(c2nc(OC[C@@H]3CCCN3C(C)C)nc3c2CCN(c2cccc4ccccc24)C3)CC1CC#N (stereo partly drawn) [Example 285, 2-[4-[2-[[(2S)-1-isopropylpyrrolidin-2-yl]methoxy]-7-(1-naphthyl)-6,8-dihydro-5H-pyrido[3,4-d]pyrimidin-4-yl]-1-prop-2-enoyl-piperazin-2-yl]acetonitrile] | C (“C”>50% POC) |  | 0.1 to 1000 nM |  | 

More lines, main results first:

POC (KRas G12C) | POC (KRas G12C; 5 µM) | SMILES | IC50 ([1]; Homo sapiens, NCI-H358, 3 h) | IC50 [1] | IC50 ([1]; Homo sapiens)
C (“C”>50% POC) |  | C=CC(=O)N1CCN(c2nc(OC[C@@H]3COCCN3C)nc3c2CCN(c2cccc4ccccc24)C3)CC1CC#N (stereo partly drawn) [Example 272, 2-(1-acryloyl-4-(2-(((S)-4-methylmorpholin-3-yl)methoxy)-7-(naphthalen-1-yl)-5,6,7,8-tetrahydropyrido[3,4-d]pyrimidin-4-yl)piperazin-2-yl)acetonitrile] | 0.1 to 1000 nM |  | 
C (“C”>50% POC) |  | C=CC(=O)N1CCN(c2nc(OC[C@H]3COCCN3C)nc3c2CCN(c2cccc4ccccc24)C3)CC1CC#N (stereo partly drawn) [Example 273, 2-(1-acryloyl-4-(2-(((R)-4-methylmorpholin-3-yl)methoxy)-7-(naphthalen-1-yl)-5,6,7,8-tetrahydropyrido[3,4-d]pyrimidin-4-yl)piperazin-2-yl)acetonitrile] | > 1000 nM |  | 
C (“C”>50% POC) |  | C=CC(=O)N1CCN(c2nc(OC[C@H]3CCCN3C)nc3c2CCN(c2cccc(F)c2C(F)(F)F)C3)C[C@@H]1CC#N [Example 274, 2-((S)-1-acryloyl-4-(7-(3-fluoro-2-(trifluoromethyl)phenyl)-2-(((R)-1-methylpyrrolidin-2-yl)methoxy)-5,6,7,8-tetrahydropyrido[3,4-d]pyrimidin-4-yl)piperazin-2-yl)acetonitrile] | 0.1 to 1000 nM |  | 
C (“C”>50% POC) |  | C=CC(=O)N1CCN(c2nc(OC[C@@H]3CCCN3C)nc3c2CCN(c2c(F)cccc2C(F)(F)F)C3)CC1CC#N (stereo partly drawn) [Example 275, 2-(1-acryloyl-4-(7-(2-fluoro-6-(trifluoromethyl)phenyl)-2-(((S)-1-methylpyrrolidin-2-yl)methoxy)-5,6,7,8-tetrahydropyrido[3,4-d]pyrimidin-4-yl)piperazin-2-yl)acetonitrile] | 0.1 to 1000 nM |  | 
C (“C”>50% POC) |  | C=CC(=O)N1CCN(c2nc(OC[C@@H]3CCCN3C)nc3c2CCN(c2cccc(Cl)c2C(F)(F)F)C3)CC1CC#N (stereo partly drawn) [Example 277, 2-(1-acryloyl-4-(7-(3-chloro-2-(trifluoromethyl)phenyl)-2-(((S)-1-methylpyrrolidin-2-yl)methoxy)-5,6,7,8-tetrahydropyrido[3,4-d]pyrimidin-4-yl)piperazin-2-yl)acetonitrile] | 0.1 to 1000 nM |  | 
 | C (“C”>50% POC) | C=CC(=O)N1CCN(c2nc(OC[C@@H]3CCCN3C)nc3c2CCN(c2ccnc4ccccc24)C3)CC1CC#N (stereo partly drawn) [Example 278, 2-(1-acryloyl-4-(2-(((S)-1-methylpyrrolidin-2-yl)methoxy)-7-(quinolin-4-yl)-5,6,7,8-tetrahydropyrido[3,4-d]pyrimidin-4-yl)piperazin-2-yl)acetonitrile] |  | 0.1 to 1000 nM | 
A (“A”≤25% POC) |  | CC(C)=CC(=O)N1CCN(c2nc(OC[C@@H]3CCCN3C)nc3c2CCN(c2cccc4ccccc24)C3)CC1CC#N (stereo partly drawn) [Example 282, 2-(1-(3-methylbut-2-enoyl)-4-(2-(((S)-1-methylpyrrolidin-2-yl)methoxy)-7-(naphthalen-1-yl)-5,6,7,8-tetrahydropyrido[3,4-d]pyrimidin-4-yl)piperazin-2-yl)acetonitrile] | > 1000 nM |  | 
C (“C”>50% POC) |  | C=CC(=O)N1CCN(c2nc(OC[C@H]3CCCN3C)nc3c2CCN(c2ccccc2C(F)(F)F)C3)CC1CC#N (stereo partly drawn) [Example 283, 2-(1-acryloyl-4-(2-(((R)-1-methylpyrrolidin-2-yl)methoxy)-7-(2-(trifluoromethyl)phenyl)-5,6,7,8-tetrahydropyrido[3,4-d]pyrimidin-4-yl)piperazin-2-yl)acetonitrile] | 0.1 to 1000 nM |  | 
C (“C”>50% POC) |  | C=CC(=O)N1CCN(c2nc(OC[C@@H]3CCCN3C)nc3c2CCN(c2cccc4ccc(Cl)cc24)C3)CC1CC#N (stereo partly drawn) [Example 286, 2-(1-acryloyl-4-(7-(7-chloronaphthalen-1-yl)-2-(((S)-1-methylpyrrolidin-2-yl)methoxy)-5,6,7,8-tetrahydropyrido[3,4-d]pyrimidin-4-yl)piperazin-2-yl)acetonitrile] |  | 0.1 to 1000 nM | 
C (“C”>50% POC) |  | C=CC(=O)N1CCN(c2nc(OC[C@@H]3CCCN3C)nc3c2CCN(c2cccc4c(F)cccc24)C3)CC1CC#N (stereo partly drawn) [Example 287, 2-[4-[7-(5-fluoro-1-naphthyl)-2-[[(2S)-1-methylpyrrolidin-2-yl]methoxy]-6,8-dihydro-5H-pyrido[3,4-d]pyrimidin-4-yl]-1-prop-2-enoyl-piperazin-2-yl]acetonitrile] |  | 0.1 to 1000 nM | 
